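The compound was tested at five concentrations on cells cultured in 96-well plates, with a 48-hour exposure period. TGI is the concentration that stops growth completely.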
How the values were obtained:
Test in all cases: NCI tumour cell line growth inhibition, 48 h
SNB-75 CNS = test system: SNB-75 CNS
MOLT-4 leukemia = test system: MOLT-4 leukemia
EKVX NSCLC = test system: EKVX NSCLC
HL-60(TB) leukemia = test system: HL-60(TB) leukemia
NCI-H23 lung = test system: NCI-H23 lung
NCI-H226 lung = test system: NCI-H226 lung
XF 498 CNS = test system: XF 498 CNS
SK-MEL-28 melanoma = test system: SK-MEL-28 melanoma
UACC-62 melanoma = test system: UACC-62 melanoma
SNB-78 CNS = test system: SNB-78 CNS
LOX IMVI melanoma = test system: LOX IMVI melanoma
HCT-15 colon = test system: HCT-15 colon
OVCAR-4 ovarian = test system: OVCAR-4 ovarian
SW-620 colon = test system: SW-620 colon
M19-MEL melanoma = test system: M19-MEL melanoma
CAKI-1 renal = test system: CAKI-1 renal
A549 NSCLC = test system: A549 NSCLC
IGROV1 ovarian = test system: IGROV1 ovarian
CCRF-CEM leukemia = test system: CCRF-CEM leukemia
SK-OV-3 ovarian = test system: SK-OV-3 ovarian
OVCAR-8 ovarian = test system: OVCAR-8 ovarian
KM12 colon = test system: KM12 colon
DMS 273 small cell lung = test system: DMS 273 small cell lung
UACC-257 melanoma = test system: UACC-257 melanoma
DMS 114 small cell lung = test system: DMS 114 small cell lung
LXFL 529 NSCLC = test system: LXFL 529 NSCLC
OVCAR-3 ovarian = test system: OVCAR-3 ovarian
TK-10 renal = test system: TK-10 renal
HCC-2998 colon = test system: HCC-2998 colon
SK-MEL-5 melanoma = test system: SK-MEL-5 melanoma
HT29 colon = test system: HT29 colon
COLO 205 colon = test system: COLO 205 colon
NCI-H522 lung = test system: NCI-H522 lung
M14 melanoma = test system: M14 melanoma
K-562 leukemia = test system: K-562 leukemia
SF-539 CNS = test system: SF-539 CNS
SN12C renal = test system: SN12C renal
HOP-92 NSCLC = test system: HOP-92 NSCLC
RPMI-8226 leukemia = test system: RPMI-8226 leukemia
KM20L2 colon = test system: KM20L2 colon
A498 renal = test system: A498 renal
786-0 renal = test system: 786-0 renal
HOP-18 NSCLC = test system: HOP-18 NSCLC
UO-31 renal = test system: UO-31 renal
SF-268 CNS = test system: SF-268 CNS
HCT-116 colon = test system: HCT-116 colon
SR leukemia = test system: SR leukemia
DLD-1 colon = test system: DLD-1 colon
MALME-3M melanoma = test system: MALME-3M melanoma
SK-MEL-2 melanoma = test system: SK-MEL-2 melanoma
SF-295 CNS = test system: SF-295 CNS
NCI-H460 lung = test system: NCI-H460 lung
OVCAR-5 ovarian = test system: OVCAR-5 ovarian
ACHN renal = test system: ACHN renal
U251 CNS = test system: U251 CNS
SNB-19 CNS = test system: SNB-19 CNS
RXF 393 renal = test system: RXF 393 renal
HOP-62 NSCLC = test system: HOP-62 NSCLC

CCN(CC)CSc1nc2ccccc2s1
TGI (SNB-75 CNS): > 100 µM
TGI (MOLT-4 leukemia): > 100 µM
TGI (EKVX NSCLC): > 100 µM
TGI (HL-60(TB) leukemia): > 100 µM
TGI (NCI-H23 lung): > 100 µM
TGI (NCI-H226 lung): > 100 µM
TGI (XF 498 CNS): > 100 µM
TGI (SK-MEL-28 melanoma): > 100 µM
TGI (UACC-62 melanoma): > 100 µM
TGI (SNB-78 CNS): > 100 µM
TGI (LOX IMVI melanoma): > 100 µM
TGI (HCT-15 colon): > 100 µM
TGI (OVCAR-4 ovarian): > 100 µM
TGI (SW-620 colon): > 100 µM
TGI (M19-MEL melanoma): > 100 µM
TGI (CAKI-1 renal): > 100 µM
TGI (A549 NSCLC): > 100 µM
TGI (IGROV1 ovarian): > 100 µM
TGI (CCRF-CEM leukemia): > 100 µM
TGI (SK-OV-3 ovarian): > 100 µM
TGI (OVCAR-8 ovarian): > 100 µM
TGI (KM12 colon): > 100 µM
TGI (DMS 273 small cell lung): > 100 µM
TGI (UACC-257 melanoma): > 100 µM
TGI (DMS 114 small cell lung): > 100 µM
TGI (LXFL 529 NSCLC): > 100 µM
TGI (OVCAR-3 ovarian): > 100 µM
TGI (TK-10 renal): > 100 µM
TGI (HCC-2998 colon): > 100 µM
TGI (SK-MEL-5 melanoma): > 100 µM
TGI (HT29 colon): > 100 µM
TGI (COLO 205 colon): > 100 µM
TGI (NCI-H522 lung): > 100 µM
TGI (M14 melanoma): > 100 µM
TGI (K-562 leukemia): > 100 µM
TGI (SF-539 CNS): > 100 µM
TGI (SN12C renal): > 100 µM
TGI (HOP-92 NSCLC): > 100 µM
TGI (RPMI-8226 leukemia): > 100 µM

N#C/C(=C\c1ccc(O)c(O)c1)C(N)=S
TGI (SNB-75 CNS): > 100 µM
TGI (KM20L2 colon): > 100 µM
TGI (MOLT-4 leukemia): > 100 µM
TGI (A498 renal): > 100 µM
TGI (EKVX NSCLC): > 100 µM
TGI (786-0 renal): > 100 µM
TGI (HL-60(TB) leukemia): > 20 µM
TGI (NCI-H23 lung): > 100 µM
TGI (NCI-H226 lung): > 100 µM
TGI (XF 498 CNS): > 100 µM
TGI (HOP-18 NSCLC): > 100 µM
TGI (UO-31 renal): > 100 µM
TGI (SF-268 CNS): > 100 µM
TGI (HCT-116 colon): > 100 µM
TGI (SK-MEL-28 melanoma): > 100 µM
TGI (SR leukemia): > 100 µM
TGI (DLD-1 colon): > 100 µM
TGI (UACC-62 melanoma): > 100 µM
TGI (MALME-3M melanoma): > 100 µM
TGI (SK-MEL-2 melanoma): > 100 µM
TGI (SF-295 CNS): > 100 µM
TGI (SNB-78 CNS): > 100 µM
TGI (LOX IMVI melanoma): > 100 µM
TGI (HCT-15 colon): > 100 µM
TGI (NCI-H460 lung): > 100 µM
TGI (OVCAR-4 ovarian): > 100 µM
TGI (SW-620 colon): > 100 µM
TGI (M19-MEL melanoma): > 100 µM
TGI (CAKI-1 renal): > 100 µM
TGI (A549 NSCLC): > 100 µM
TGI (IGROV1 ovarian): > 100 µM
TGI (CCRF-CEM leukemia): > 55.3 µM
TGI (SK-OV-3 ovarian): > 100 µM
TGI (OVCAR-8 ovarian): > 100 µM
TGI (KM12 colon): > 100 µM
TGI (OVCAR-5 ovarian): > 100 µM
TGI (ACHN renal): > 100 µM
TGI (DMS 273 small cell lung): > 100 µM
TGI (U251 CNS): > 100 µM
TGI (UACC-257 melanoma): 97.7 µM
TGI (SNB-19 CNS): > 100 µM
TGI (DMS 114 small cell lung): > 100 µM
TGI (LXFL 529 NSCLC): > 100 µM
TGI (OVCAR-3 ovarian): > 100 µM
TGI (TK-10 renal): > 100 µM
TGI (RXF 393 renal): > 89.7 µM
TGI (HCC-2998 colon): > 100 µM
TGI (SK-MEL-5 melanoma): > 100 µM
TGI (HT29 colon): > 100 µM
TGI (COLO 205 colon): > 100 µM
TGI (NCI-H522 lung): 75.9 µM
TGI (M14 melanoma): > 100 µM
TGI (K-562 leukemia): > 100 µM
TGI (SF-539 CNS): > 100 µM
TGI (SN12C renal): > 100 µM
TGI (HOP-92 NSCLC): > 100 µM
TGI (HOP-62 NSCLC): > 100 µM
TGI (RPMI-8226 leukemia): > 100 µM

COc1cc(OC)c2c(c1)C(=O)C(CC(C)O)=CC2=O (stereo not given)
TGI (SNB-75 CNS): 41 µM
TGI (KM20L2 colon): 31.8 µM
TGI (MOLT-4 leukemia): 41.8 µM
TGI (A498 renal): 31.7 µM
TGI (EKVX NSCLC): 26.2 µM
TGI (786-0 renal): 29.9 µM
TGI (HL-60(TB) leukemia): 21.8 µM
TGI (NCI-H23 lung): 34.9 µM
TGI (NCI-H226 lung): 35.4 µM
TGI (XF 498 CNS): 27 µM
TGI (HOP-18 NSCLC): 30.4 µM
TGI (UO-31 renal): 29.9 µM
TGI (SF-268 CNS): 33 µM
TGI (HCT-116 colon): 25 µM
TGI (SK-MEL-28 melanoma): 31.5 µM
TGI (SR leukemia): 7.44 µM
TGI (DLD-1 colon): 28.5 µM
TGI (UACC-62 melanoma): 25.8 µM
TGI (MALME-3M melanoma): 37.3 µM
TGI (SK-MEL-2 melanoma): 36.2 µM
TGI (SF-295 CNS): 27.4 µM
TGI (SNB-78 CNS): 32 µM
TGI (LOX IMVI melanoma): 19 µM
TGI (HCT-15 colon): 27.7 µM
TGI (NCI-H460 lung): 40.4 µM
TGI (OVCAR-4 ovarian): 31.9 µM
TGI (SW-620 colon): 31.7 µM
TGI (M19-MEL melanoma): 11.4 µM
TGI (CAKI-1 renal): 34.3 µM
TGI (A549 NSCLC): 37.1 µM
TGI (IGROV1 ovarian): 34.2 µM
TGI (CCRF-CEM leukemia): 33.5 µM
TGI (SK-OV-3 ovarian): 31.9 µM
TGI (OVCAR-8 ovarian): 29.5 µM
TGI (KM12 colon): 35 µM
TGI (OVCAR-5 ovarian): 32.3 µM
TGI (ACHN renal): 30.2 µM
TGI (DMS 273 small cell lung): 37.6 µM
TGI (U251 CNS): 31.8 µM
TGI (UACC-257 melanoma): 30.7 µM
TGI (SNB-19 CNS): 31.6 µM
TGI (DMS 114 small cell lung): 9.21 µM
TGI (LXFL 529 NSCLC): 26.1 µM
TGI (OVCAR-3 ovarian): 18.3 µM
TGI (TK-10 renal): 34.1 µM
TGI (RXF 393 renal): 25.3 µM
TGI (HCC-2998 colon): 43.7 µM
TGI (SK-MEL-5 melanoma): 28 µM
TGI (HT29 colon): 36.8 µM
TGI (COLO 205 colon): 32.6 µM
TGI (NCI-H522 lung): 30.9 µM
TGI (M14 melanoma): 32.9 µM
TGI (K-562 leukemia): 78.8 µM
TGI (SF-539 CNS): 32.5 µM
TGI (SN12C renal): 32.6 µM
TGI (HOP-92 NSCLC): 23.3 µM
TGI (HOP-62 NSCLC): 33.6 µM
TGI (RPMI-8226 leukemia): 46.4 µM

From PubChem BioAssay (NCI)
